US9045493B2, “Furo[3,2-b]- and thieno[3,2-b]pyridin derivatives” (Merck Patent GmbH, priority 2012, dated 2015)

What was measured:
[1] = target: T1, TANK binding kinase (TBK1) (Homo sapiens, UniProt Q9UHD2); assay: TBK1 enzyme assay (384-well Flashplate kinase assay); assay type: biochemical; conditions: 10 μM ATP, 120 Min at 30° C.
T1 sequence (Q9UHD2 1-729): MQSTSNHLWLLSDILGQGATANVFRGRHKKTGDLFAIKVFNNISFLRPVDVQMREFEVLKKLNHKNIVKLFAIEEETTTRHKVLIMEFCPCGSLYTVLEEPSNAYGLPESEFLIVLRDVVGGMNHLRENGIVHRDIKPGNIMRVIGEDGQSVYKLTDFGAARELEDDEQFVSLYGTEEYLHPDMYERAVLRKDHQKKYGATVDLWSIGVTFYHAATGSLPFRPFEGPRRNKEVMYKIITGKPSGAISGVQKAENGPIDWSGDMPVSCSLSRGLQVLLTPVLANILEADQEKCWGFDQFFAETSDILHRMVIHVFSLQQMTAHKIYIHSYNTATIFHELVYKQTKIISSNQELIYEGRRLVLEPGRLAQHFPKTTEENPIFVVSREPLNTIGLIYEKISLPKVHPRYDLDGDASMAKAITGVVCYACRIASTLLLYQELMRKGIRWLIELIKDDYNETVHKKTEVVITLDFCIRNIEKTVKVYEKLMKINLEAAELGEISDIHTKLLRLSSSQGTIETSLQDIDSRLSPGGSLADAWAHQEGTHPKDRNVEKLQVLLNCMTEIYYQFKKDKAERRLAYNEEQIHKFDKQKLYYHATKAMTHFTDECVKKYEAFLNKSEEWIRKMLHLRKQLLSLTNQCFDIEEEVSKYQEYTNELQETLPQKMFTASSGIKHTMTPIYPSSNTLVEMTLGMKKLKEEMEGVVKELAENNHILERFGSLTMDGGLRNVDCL
Protocol: The kinase assay is performed as 384-well Flashplate assay (for e.g. Topcount measurement.
0.6 nM TANK binding kinase (TBK1), 800 nM biotinylated MELK-derived peptide (Biotin-Ah-Ah-[…]) and 10 μM ATP (spiked with 0.25 μCi ^33P-ATP/well) are incubated in a total volume of 50 μl (10 mM MOPS, 10 mM Mg-acetat, 0.1 mM EGTA, 1 mM DTT, 0.02% Brij35, 0.1% BSA, pH 7.5) with or without test compound for 120 Min at 30° C. The reaction is stopped with 25 μl 200 mM EDTA. After 30 Min at room temperature the liquid is removed and each well washed thrice with 100 μl 0.9% sodium chloride solution. Nonspecific reaction is determined in presence of 100 nM Staurosporine. Radioactivity is measured in a Topcount (PerkinElmer). Results (e.g. IC50-values) are calculated with program tools provided by the IT-department (e.g. AssayExplorer, Symyx).

IKKε = target: T2, IKKε (Homo sapiens, UniProt Q14164); assay: IKKε kinase assay (384-well Flashplate); assay type: biochemical; conditions: 10 μM ATP, 2 hours at 30° C.; read-out: IKKε enzyme assay IC50
T2 sequence (Q14164 1-716): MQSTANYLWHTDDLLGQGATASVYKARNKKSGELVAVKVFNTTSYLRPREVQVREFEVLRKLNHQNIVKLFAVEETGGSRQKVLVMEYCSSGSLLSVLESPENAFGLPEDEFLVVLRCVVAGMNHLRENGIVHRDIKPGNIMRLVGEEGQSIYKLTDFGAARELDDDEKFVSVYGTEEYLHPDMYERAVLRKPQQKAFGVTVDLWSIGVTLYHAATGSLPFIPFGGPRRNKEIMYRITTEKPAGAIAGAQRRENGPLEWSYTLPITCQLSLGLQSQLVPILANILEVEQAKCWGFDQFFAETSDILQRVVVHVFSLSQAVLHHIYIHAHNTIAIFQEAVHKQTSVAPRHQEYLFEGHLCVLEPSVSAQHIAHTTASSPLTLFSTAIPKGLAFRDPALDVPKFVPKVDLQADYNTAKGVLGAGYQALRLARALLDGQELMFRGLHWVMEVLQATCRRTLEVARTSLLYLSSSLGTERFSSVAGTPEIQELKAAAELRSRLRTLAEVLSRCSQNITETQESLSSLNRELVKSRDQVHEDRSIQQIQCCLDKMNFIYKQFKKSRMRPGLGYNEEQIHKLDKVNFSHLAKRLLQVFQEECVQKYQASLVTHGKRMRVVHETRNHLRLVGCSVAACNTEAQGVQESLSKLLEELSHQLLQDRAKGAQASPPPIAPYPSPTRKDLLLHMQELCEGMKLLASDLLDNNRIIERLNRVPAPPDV
Protocol: The kinase assay is performed either as 384-well Flashplate assay (for e.g. Topcount measurement).
1 nM IKKε, 800 nM biotinylated IκBα(19-42) peptide (Biotin-C6-C6-[…]) and 10 μM ATP (spiked with 0.3 μCi ^33P-ATP/well) are incubated in a total volume of 50 μl (10 mM MOPS, 10 mM Mg-acetat, 0.1 mM EGTA, 1 mM Dithiothreitol, 0.02% Brij35, 0.1% BSA, 0.1% BioStab, pH 7.5) with or without test compound for 2 hours at 30° C. The reaction is stopped with 25 μl 200 mM EDTA. After 30 Min at room temperature the liquid is removed and each well washed thrice with 100 μl 0.9% sodium chloride solution. […] Radioactivity is measured with Topcount (PerkinElmer). Results (e.g. IC50-values) are calculated with program tools provided by the IT-department (e.g. AssayExplorer, Symyx).

IC50 [1] [nM]	IC50 (IKKε) [nM]	SMILES
300 to 3000	300 to 3000	CCN(CCOC)C(=O)c1cccc(-c2cc3nccc(-c4ccc(OC5CCOCC5)c(C#N)c4)c3o2)c1 [Compound A26a, 3-{7-[3-cyano-4-(tetrahydro-pyran-4-yloxy)-phenyl]-furo[3,2-b]pyridin-2-yl}-N-ethyl-N-(2-methoxy-ethyl)-benzamide]
< 300	< 300	CN(C)CCNC(=O)c1ccc(-c2cc3nccc(-c4ccc(OC5CCOCC5)c(C#N)c4)c3o2)cc1 [Compound A27, 4-{7-[3-cyano-4-(tetrahydro-pyran-4-yloxy)-phenyl]-furo[3,2-b]pyridin-2-yl}-N-(2-dimethylamino-ethyl)-benzamide]
< 300	< 300	CN(C)CCN(C)C(=O)c1ccc(-c2cc3nccc(-c4ccc(OC5CCOCC5)c(C#N)c4)c3o2)cc1 [Compound A28, 4-{7-[3-cyano-4-(tetrahydro-pyran-4-yloxy)-phenyl]-furo[3,2-b]pyridin-2-yl}-N-(2-dimethylamino-ethyl)-N-methyl-benzamide]
< 300	< 300	COc1cc(-c2cc3nccc(-c4ccc(OC5CCOCC5)c(C#N)c4)c3o2)ccc1C(=O)N1CC2(COC2)C1 [Compound A30, 5-{2-[3-methoxy-4-(2-oxa-6-aza-spiro[3.3]heptane-6-carbonyl)-phenyl]-furo[3,2-b]pyridin-7-yl}-2-(tetrahydro-pyran-4-yloxy)-benzonitrile]
< 300	< 300	CCN(CCN(C)C)C(=O)c1ccc(-c2cc3nccc(-c4ccc(OC5CCOCC5)c(C#N)c4)c3o2)cc1OC [Compound A31, 4-{7-[3-cyano-4-(tetrahydro-pyran-4-yloxy)-phenyl]-furo[3,2-b]pyridin-2-yl}-N-(2-dimethylamino-ethyl)-N-ethyl-2-methoxy-benzamide]
< 300	< 300	COc1cc(-c2cc3nccc(-c4ccc(OC5CCOCC5)c(C#N)c4)c3o2)ccc1C(=O)NCCN(C)C [Compound A32, 4-{7-[3-cyano-4-(tetrahydro-pyran-4-yloxy)-phenyl]-furo[3,2-b]pyridin-2-yl}-N-(2-dimethylamino-ethyl)-2-methoxy-benzamide]
< 300	< 300	N#Cc1cc(-c2ccnc3cc(-c4ccc(C(=O)NCCO)cc4)oc23)ccc1OC1CCOCC1 [Compound A33, 4-{7-[3-cyano-4-(tetrahydro-pyran-4-yloxy)-phenyl]-furo[3,2-b]pyridin-2-yl}-N-(2-hydroxy-ethyl)-benzamide]
< 300	< 300	N#Cc1cc(-c2ccnc3cc(-c4ccc(C(=O)N5CCNCC5)cc4)oc23)ccc1OC1CCOCC1 [Compound A34, 5-{2-[4-(piperazine-1-carbonyl)-phenyl]-furo[3,2-b]pyridin-7-yl}-2-(tetrahydro-pyran-4-yloxy)-benzonitrile]

The next lines start with the compound.

SMILES	IC50 [1] [nM]	IC50 (IKKε) [nM]
N#Cc1cc(-c2ccnc3cc(-c4ccc(C(=O)O)cc4)oc23)ccc1OC1CCOCC1 [Compound A16a, 4-{7-[3-Cyano-4-(tetrahydro-pyran-4-yloxy)-phenyl]-furo[3,2-b]pyridin-2-yl}-benzoic acid]	300 to 3000	300 to 3000
CN1CCN(C(=O)c2ccc(-c3cc4nccc(-c5ccc(OC6CCOCC6)c(C#N)c5)c4o3)cc2)CC1 [Compound A17, 5-{2-[4-(4-Methyl-piperazine-1-carbonyl)-phenyl]-furo[3,2-b]pyridin-7-yl}-2-(tetrahydro-pyran-4-yloxy)-benzonitrile]	< 300	< 300
N#Cc1cc(-c2ccnc3cc(-c4ccc(C(N)=O)cc4)oc23)ccc1OC1CCOCC1 [Compound A18, 4-{7-[3-cyano-4-(tetrahydro-pyran-4-yloxy)-phenyl]-furo[3,2-b]pyridin-2-yl}-benzamide]	3000 to 50000	3000 to 50000
CNC(=O)c1ccc(-c2cc3nccc(-c4ccc(OC5CCOCC5)c(C#N)c4)c3o2)cc1 [Compound A19, 4-{7-[3-cyano-4-(tetrahydro-pyran-4-yloxy)-phenyl]-furo[3,2-b]pyridin-2-yl}-N-methyl-benzamide]	300 to 3000	300 to 3000
CCNC(=O)c1ccc(-c2cc3nccc(-c4ccc(OC5CCOCC5)c(C#N)c4)c3o2)cc1 [Compound A20, 4-{7-[3-cyano-4-(tetrahydro-pyran-4-yloxy)-phenyl]-furo[3,2-b]pyridin-2-yl}-N-ethyl-benzamide]	300 to 3000	300 to 3000
CC(C)(C)OCCNC(=O)c1ccc(-c2cc3nccc(-c4ccc(OC5CCOCC5)c(C#N)c4)c3o2)cc1 [Compound A21, N-(2-tert-butoxy-ethyl)-4-{7-[3-cyano-4-(tetrahydro-pyran-4-yloxy)-phenyl]-furo[3,2-b]pyridin-2-yl}-benzamide]	300 to 3000	300 to 3000
COCCNC(=O)c1ccc(-c2cc3nccc(-c4ccc(OC5CCOCC5)c(C#N)c4)c3o2)cc1 [Compound A22, 4-{7-[3-cyano-4-(tetrahydro-pyran-4-yloxy)-phenyl]-furo[3,2-b]pyridin-2-yl}-N-(2-methoxy-ethyl)-benzamide]	300 to 3000	300 to 3000
CN(C)C(=O)c1ccc(-c2cc3nccc(-c4ccc(OC5CCOCC5)c(C#N)c4)c3o2)cc1 [Compound A23, 4-{7-[3-cyano-4-(tetrahydro-pyran-4-yloxy)-phenyl]-furo[3,2-b]pyridin-2-yl}-N,N-dimethyl-benzamide]	< 300	< 300
CCN(C)C(=O)c1ccc(-c2cc3nccc(-c4ccc(OC5CCOCC5)c(C#N)c4)c3o2)cc1 [Compound A24, 4-{7-[3-cyano-4-(tetrahydro-pyran-4-yloxy)-phenyl]-furo[3,2-b]pyridin-2-yl}-N-ethyl-N-methyl-benzamide]	< 300	< 300
CN(CCO)C(=O)c1ccc(-c2cc3nccc(-c4ccc(OC5CCOCC5)c(C#N)c4)c3o2)cc1 [Compound A25, 4-{7-[3-cyano-4-(tetrahydro-pyran-4-yloxy)-phenyl]-furo[3,2-b]pyridin-2-yl}-N-(2-hydroxy-ethyl)-N-methyl-benzamide]	< 300	< 300
COCCN(C)C(=O)c1ccc(-c2cc3nccc(-c4ccc(OC5CCOCC5)c(C#N)c4)c3o2)cc1 [Compound A26, 4-{7-[3-cyano-4-(tetrahydro-pyran-4-yloxy)-phenyl]-furo[3,2-b]pyridin-2-yl}-N-(2-methoxy-ethyl)-N-methyl-benzamide]	< 300	< 300
